The term IC50 denotes the concentration that inhibits the measured activity by half.

Experimental findings from patent US11981669B2, “1,7-naphthyridine derivative and preparation method and use therefor” (CSPC ZHONGQI PHARMACEUTICAL TECHNOLOGY (SHIJIAZHUANG) CO., …, priority 2018, dated 2024) are described below.

The test system of one data set is erythropoietin. The experiment in a line: Expression of erythropoietin in vivo (plasma EPO ELISA after single oral dose).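 Further: male C57 mice given compound by mouth, five animals per treatment group, with EPO in plasma measured by ELISA.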 The note with it: once, plasma 6 hours after administration. (In general: ELISA stands for enzyme-linked immunosorbent assay.)
Another data set concerns HIF-1α. The experiment in a line: Expression of HIF-1α protein in Hep3B cells (western blot, grayscale analysis). The note with it: for fold induction at 30 µM: Homo sapiens, 2 h, compound at 30 μM, 10 μM and 3 μM, read-out: HIF-1α level of the compound of the present disclosure/HIF-1α level of blank control. The data set is classed as cell-based, Human. The protocol: (§1) A test compound was dissolved in dimethyl sulfoxide into a 100 mM stock solution, and then was diluted with 0.5% FBS-containing DMEM medium into 30 μM, 10 μM and 3 μM for later use. Human liver cancer cells Hep3B were seeded in a six-well plate at a density of 2.25*10^5 cells/well, 2 mL per well. After cultivation overnight, the cells were treated with compounds at different concentrations for 2 h. The proteins were extracted for western blot and further grayscale analysis.

The test system of a further data set is HIF-2α. The experiment in a line: Expression of HIF-2α protein in Hep3B cells (western blot, grayscale analysis). The data set is classed as cell-based, Human. Conditions: for fold induction at 30 µM: Homo sapiens, 2 h, compound at 30 μM, 10 μM and 3 μM, read-out: HIF-2α level of the compound of the present disclosure/HIF-2α level of blank control. The protocol: as §1
A general note: Immunoblotting shows a protein as a band on a membrane.

For a further data set, the system named is reticulocytes. The experiment in a line: Effect on reticulocytes of normal mice. The data set is classed as in vivo, Balb/c mice. Also noted: Reticulocytes (RETIC), average: unit not given here. As to the method: 72 Balb/c mice, male, were divided into 12 groups, 6 mice in each treatment group. In the positive drug control groups: the mice in the FG-4592 treatment groups were orally administered once, at two doses of 10 mg/kg and 50 mg/kg, and the mice in the rhEPO treatment group was intraperitoneaily injected once, at a dose of 100 IU/kg. The compounds of the present disclosure were all orally administered once at a dose of 10 mg/kg. 72 h after the administration, blood was collected from the orbit of all animals, and subjected to EDTA-K2 anticoagulation. Then reticulocytes (RETIC) were counted with an automatic blood cell analyzer.

The subject of data set [1] is rats with residual kidney. The experiment in a line: SD rat residual kidney experiment. The format is in vivo, SD rats. Set-up: Hematocrit / Alanine aminotransferase / Glutamic-oxalacetic transaminase: unit not given here. As to the method:
79 SD rats were subjected to residual kidney surgery after anesthesia (left kidney was resected, one third of the right kidney was left, and the resected kidney part was weighed to confirm the surgical error). After 4 weeks, 45 surviving rats were subjected to blood cell dection and then assigned according to the HCT value 37 rats in good condition were selected and divided into the following groups: Link-118 (5, 10 mg/kg), Link-121 (5, 10 mg/kg), and FG-4592 (10 mg/kg), 6 rats in each treatment group, and 7 in the model group. 4 rats were assigned to the blank control group. The rats were administered three times each week (administered on Monday, Wednesday, and Friday), for 15 times, and blood was taken 24 hours after the last administration (tested by blood routine, blood biochemistry, hepcidin kit).

In another data set the target is CYP1A2 (Homo sapiens (Human), UniProt P05177). The data set is classed as in vitro ADME. The source says: (§2) The compounds of the present disclosure were subjected to the CYP450 enzyme inhibition assay.
For a further data set, the target named is CYP2C19 (Homo sapiens (Human), UniProt P33261). The experiment in a line: CYP enzyme inhibition assay. The data set is classed as in vitro ADME.
Text: as §2

The target in the next data set is CYP2C9 (Homo sapiens (Human), UniProt P11712). The experiment in a line: CYP enzyme inhibition assay. The data set is classed as in vitro ADME.
Text: as §2

In another data set the target is CYP2D6 (Homo sapiens (Human), UniProt P10635). The experiment in a line: CYP enzyme inhibition assay. The format is in vitro ADME.
Text: as §2

Another data set addresses CYP3A4-M (Homo sapiens (Human), UniProt P08684). The experiment in a line: CYP enzyme inhibition assay. The data set is classed as in vitro ADME.
Text: as §2

The next data set has as its target hERG channels (Homo sapiens (Human), UniProt Q12809). The experiment in a line: cell-based. The data set is classed as cell-based. The note with it: for Inhibitory effect on hERG current at the highest test concentration: human, 30 μM. The protocol: Whole-cell patch clamp technique was used to record hERG current. A cell suspension was added to a 35 mm Petri dish, and the dish was then placed on an inverted microscope stage. After the adherence of cells, they were perfused with extracellular fluid at a flow rate of 1-2 mL/min. A glass microelectrode was drawn by a microelectrode puller in two steps, and the pipette tip resistance was between 2-5 MΩ. After establishing the whole cell recording, the clamp potential was held at −80 mV, followed by depolarization to +60 mV when given voltage stimulation and then repolarization to −50 mV to elicit hERG tail current. All recordings were performed after the current was stable. Extracellular perfusion administration started from a low concentration, staying for 5-10 min at each concentration until the current was stable, and then cells were further perfused with the next concentration.
(hERG is a cardiac potassium channel; its block is linked to QT prolongation.)

The mark [2] stands for this setting: 10 mg/kg p.o., once, 72 h after administration.
Setting [3] is: 10 mg/kg, three times each week, 15 times, x ± sd.
The mark [4] stands for this setting: compared with the blank control group.
The mark [5] stands for this setting: 100 IU/kg i.p., once, 72 h after administration.

Values joined by “and” are separate entries in the source; they are usually repeats but may differ in a detail not shown here. Equal entries are not always repeated. Marks after values point to notes of the source that are not given here.

CYP2D6, sequence (P10635 whole entry): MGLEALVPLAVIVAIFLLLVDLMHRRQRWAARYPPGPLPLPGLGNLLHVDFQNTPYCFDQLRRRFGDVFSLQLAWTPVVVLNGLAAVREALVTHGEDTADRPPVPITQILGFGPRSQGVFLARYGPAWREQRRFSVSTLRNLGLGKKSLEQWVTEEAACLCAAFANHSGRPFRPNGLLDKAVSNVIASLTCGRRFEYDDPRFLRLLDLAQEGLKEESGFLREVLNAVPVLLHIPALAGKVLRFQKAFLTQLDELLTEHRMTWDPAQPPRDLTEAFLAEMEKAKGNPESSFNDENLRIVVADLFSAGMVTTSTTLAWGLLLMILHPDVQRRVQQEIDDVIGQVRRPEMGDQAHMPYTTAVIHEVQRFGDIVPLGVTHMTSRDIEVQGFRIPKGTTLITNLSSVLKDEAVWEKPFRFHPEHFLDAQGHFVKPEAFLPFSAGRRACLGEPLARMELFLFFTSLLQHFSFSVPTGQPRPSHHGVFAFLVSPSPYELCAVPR
CYP3A4-M, sequence (P08684 whole entry): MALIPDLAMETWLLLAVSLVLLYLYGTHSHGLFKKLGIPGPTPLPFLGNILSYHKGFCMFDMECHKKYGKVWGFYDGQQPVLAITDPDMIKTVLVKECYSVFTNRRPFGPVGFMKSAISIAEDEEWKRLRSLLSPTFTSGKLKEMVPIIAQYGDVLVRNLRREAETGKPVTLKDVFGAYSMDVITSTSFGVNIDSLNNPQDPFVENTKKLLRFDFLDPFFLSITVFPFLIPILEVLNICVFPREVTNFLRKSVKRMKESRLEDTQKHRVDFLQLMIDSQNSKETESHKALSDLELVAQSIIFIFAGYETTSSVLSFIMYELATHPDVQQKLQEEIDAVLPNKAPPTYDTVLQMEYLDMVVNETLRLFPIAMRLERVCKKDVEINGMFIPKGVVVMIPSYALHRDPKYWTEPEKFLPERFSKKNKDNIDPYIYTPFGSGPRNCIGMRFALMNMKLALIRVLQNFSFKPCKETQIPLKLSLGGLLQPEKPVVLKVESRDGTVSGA
hERG channels, sequence (Q12809 whole entry, the tested form may be a part): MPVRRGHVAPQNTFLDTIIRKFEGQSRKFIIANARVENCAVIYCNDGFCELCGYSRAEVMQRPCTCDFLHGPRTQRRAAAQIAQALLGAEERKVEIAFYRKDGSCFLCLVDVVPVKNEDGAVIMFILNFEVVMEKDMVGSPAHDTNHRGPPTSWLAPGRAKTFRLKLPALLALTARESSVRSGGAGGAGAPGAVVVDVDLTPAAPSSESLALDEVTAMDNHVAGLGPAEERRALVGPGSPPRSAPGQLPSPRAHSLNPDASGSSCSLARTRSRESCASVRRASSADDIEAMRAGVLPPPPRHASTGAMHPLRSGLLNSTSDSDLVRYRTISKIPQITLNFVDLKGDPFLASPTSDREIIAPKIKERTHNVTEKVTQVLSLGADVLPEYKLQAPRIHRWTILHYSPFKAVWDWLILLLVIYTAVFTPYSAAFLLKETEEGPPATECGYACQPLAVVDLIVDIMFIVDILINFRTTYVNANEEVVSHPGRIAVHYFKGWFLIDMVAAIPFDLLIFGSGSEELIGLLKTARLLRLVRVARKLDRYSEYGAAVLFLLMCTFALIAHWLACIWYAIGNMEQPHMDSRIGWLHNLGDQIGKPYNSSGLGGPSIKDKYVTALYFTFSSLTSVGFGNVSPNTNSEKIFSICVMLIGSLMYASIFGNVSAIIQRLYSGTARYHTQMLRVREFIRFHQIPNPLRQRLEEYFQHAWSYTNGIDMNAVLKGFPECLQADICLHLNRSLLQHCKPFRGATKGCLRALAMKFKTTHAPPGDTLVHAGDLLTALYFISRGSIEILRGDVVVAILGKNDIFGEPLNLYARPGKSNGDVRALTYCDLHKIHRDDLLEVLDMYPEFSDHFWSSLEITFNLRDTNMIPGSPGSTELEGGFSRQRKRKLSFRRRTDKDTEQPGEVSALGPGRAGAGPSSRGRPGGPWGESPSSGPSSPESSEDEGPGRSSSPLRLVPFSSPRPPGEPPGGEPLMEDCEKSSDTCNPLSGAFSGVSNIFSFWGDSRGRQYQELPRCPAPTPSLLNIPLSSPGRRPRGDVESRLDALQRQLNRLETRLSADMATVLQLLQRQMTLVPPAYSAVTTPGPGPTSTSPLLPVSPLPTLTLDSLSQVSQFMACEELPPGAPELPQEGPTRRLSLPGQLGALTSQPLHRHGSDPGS
CYP2C9, sequence (P11712 whole entry): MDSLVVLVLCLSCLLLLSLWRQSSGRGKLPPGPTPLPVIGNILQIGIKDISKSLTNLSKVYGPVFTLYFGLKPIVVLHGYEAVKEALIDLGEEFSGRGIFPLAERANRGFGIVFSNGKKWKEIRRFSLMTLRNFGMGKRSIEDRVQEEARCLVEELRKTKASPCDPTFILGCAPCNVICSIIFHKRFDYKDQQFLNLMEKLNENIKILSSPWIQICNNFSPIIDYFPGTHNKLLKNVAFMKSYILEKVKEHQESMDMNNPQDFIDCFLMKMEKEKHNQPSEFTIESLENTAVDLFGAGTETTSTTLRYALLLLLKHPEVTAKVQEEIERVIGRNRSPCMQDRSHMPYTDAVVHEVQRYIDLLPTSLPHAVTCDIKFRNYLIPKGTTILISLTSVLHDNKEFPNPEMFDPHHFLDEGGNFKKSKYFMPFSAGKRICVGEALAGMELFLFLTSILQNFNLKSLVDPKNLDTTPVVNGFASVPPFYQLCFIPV
CYP2C19, sequence (P33261 whole entry): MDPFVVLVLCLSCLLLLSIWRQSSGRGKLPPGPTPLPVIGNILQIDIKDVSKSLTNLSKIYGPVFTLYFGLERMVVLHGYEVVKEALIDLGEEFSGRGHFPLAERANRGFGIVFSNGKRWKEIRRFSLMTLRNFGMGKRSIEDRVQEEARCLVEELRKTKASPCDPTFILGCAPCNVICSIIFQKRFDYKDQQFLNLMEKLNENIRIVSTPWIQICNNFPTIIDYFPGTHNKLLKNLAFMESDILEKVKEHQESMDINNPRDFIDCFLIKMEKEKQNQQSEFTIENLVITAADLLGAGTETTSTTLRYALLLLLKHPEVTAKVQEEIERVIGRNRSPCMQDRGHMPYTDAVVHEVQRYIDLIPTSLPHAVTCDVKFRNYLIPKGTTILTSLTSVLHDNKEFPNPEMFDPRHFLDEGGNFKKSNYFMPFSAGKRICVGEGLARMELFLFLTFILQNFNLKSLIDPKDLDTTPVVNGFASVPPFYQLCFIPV
CYP1A2, sequence (P05177 whole entry): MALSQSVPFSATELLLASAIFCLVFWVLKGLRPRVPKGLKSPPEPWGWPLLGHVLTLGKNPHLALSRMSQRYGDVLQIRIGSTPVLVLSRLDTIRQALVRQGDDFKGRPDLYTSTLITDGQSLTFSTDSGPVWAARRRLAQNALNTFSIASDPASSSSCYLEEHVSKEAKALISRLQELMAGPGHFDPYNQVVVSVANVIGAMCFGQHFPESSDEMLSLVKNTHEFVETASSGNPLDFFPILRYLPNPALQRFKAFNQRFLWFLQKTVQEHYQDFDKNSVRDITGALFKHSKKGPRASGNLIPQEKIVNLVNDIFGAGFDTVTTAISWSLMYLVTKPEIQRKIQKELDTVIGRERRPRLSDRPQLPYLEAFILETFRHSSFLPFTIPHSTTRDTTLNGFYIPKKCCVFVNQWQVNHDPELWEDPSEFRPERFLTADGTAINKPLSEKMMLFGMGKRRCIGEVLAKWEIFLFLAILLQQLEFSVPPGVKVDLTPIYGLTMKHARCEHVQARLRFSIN
Description for erythropoietin: (2) 30 c57 mice, male, were divided into 6 groups, 5 mice in each treatment group. […] 6 hours after the administration, blood was taken, and plasma was collected for EPO detection with an ELISA kit (R&D Co.).

On to `COc1ccc(Oc2ccc3c(O)c(C(=O)NCC(=O)O)nc(Cl)c3n2)cc1` [Link-119, 2-(2-(4-methoxyphenoxy)-5-hydroxy-8-chloro-1,7-naphthyridine-6-formamido) Acetic Acid], for which the “EPO OD value” with erythropoietin (10 mg/kg) and in the data set with erythropoietin (50 mg/kg) was “A (A represents 1.0<EPO OD value<1.5)” throughout.
Take `O=C(O)CNC(=O)c1nc(Br)c2nc(Oc3ccc(F)cc3)ccc2c1O` [Link-131, 2-(2-(4-fluorophenoxy)-5-hydroxy-8-bromo-1,7-naphthyridine-6-formamido) Acetic Acid]: in the data set on HIF-1α, the “HIF-1α protein expression compared with blank control” value was “higher than that of the blank control” and the fold induction at 30 µM fell in the range of 4.5 to 8.5. In the data set on HIF-2α, the “HIF-2α protein expression compared with blank control” value was “higher than that of the blank control” and the fold induction at 30 µM lay in the range of 4.5 to 8.5. For the same compound, in the data set with erythropoietin (10 mg/kg), the “EPO OD value” was “A (A represents 1.0<EPO OD value<1.5)”. In addition, the “EPO OD value” in the data set on erythropoietin (50 mg/kg) is “A (A represents 1.0<EPO OD value<1.5)”.
Turning to `Cc1nc(C(=O)NCC(=O)O)c(O)c2ccc(Oc3ccccc3)cc12` [FG-4592, reference compound], in the data set with reticulocytes (setting [2]), the “Reticulocytes (RETIC), average” value stood at 4.73. The “Reticulocytes (RETIC), average” value with reticulocytes (50 mg/kg p.o., once, 72 h after administration) is 7.42. In the data set with reticulocytes (72 h after single administration, FG4592 statement at 10 mg/kg), the “Reticulocyte counts compared with normal animals” value was “no significant difference from normal animals”. Also, in the data set with HIF-1α, the fold induction at 30 µM was in the range of 8.5 to 10. Further, in the data set with HIF-2α, the fold induction at 30 µM is 8.5 to 10. The Red blood cells in [1] (10 mg/kg, three times each week, 15 times, blood 24 hours after last administration, x ± sd) is given as 8.26 ± 0.41** 10^12/L. For the same compound, in data set [1] (setting [3]), the Alanine aminotransferase came to 40.4 ± 3.58, the Glutamic-oxalacetic transaminase was found to be 11620 ± 10.96, the Hematocrit was determined as 47.7 ± 2.19 and the Hemoglobin is given as 16720 ± 8.47 g/L. The compound also yielded a Hepcidin in data set [1] (setting [3]) of 2.59 ± 0.7015 ng/mL. In data set [1] (setting [4]), the “Effect on glutamic-oxalacetic transaminase” value was “no significant effect” and the “Effect on liver glutamic-pyruvic aminotransferase” value is reported as “no significant effect”. In addition, in data set [1] (compared with the model group), the “Effect on HCT in rats with residual kidney” value was “significantly increase”, the “Effect on HGB in rats with residual kidney” value is on record as “significantly increase”, the “Effect on RBC in rats with residual kidney” value was “significantly increase” and the “Effect on hepcidin in rats with residual kidney” value was “significantly inhibit”. Further, the “EPO OD value” with erythropoietin (10 mg/kg) is listed as “A (A represents 1.0<EPO OD value<1.5)”. In addition, in the data set on erythropoietin (50 mg/kg), the “EPO OD value” is “A (A represents 1.0<EPO OD value<1.5)”.
As for `CC(C)(C)C(=O)OCOC(=O)CNC(=O)c1nc(Cl)c2nc(Oc3ccccc3)ccc2c1O` [Link-135, methyl (2-(2-phenoxy-5-hydroxy-8-chloro-1,7-naphthyridine-6-formamido)acetoxy) pivalate], the “EPO OD value” in the data set on erythropoietin (10 mg/kg) and in the data set with erythropoietin (50 mg/kg) was “B (B represents 1.5<EPO OD value<2)” in each case.
With “rhEPO: positive drug control, intraperitoneally injected once at 100 IU/kg”, in the data set with reticulocytes (setting [5]), the “Reticulocytes (RETIC), average” value was found to be 6.58; the “Reticulocytes (RETIC), individual animals No. 1-6” value was 5.9 (2×) and 6.6 (2×) and 7.1 and 7.4.
Regarding `O=c1c(-n2ccnn2)c[nH]n1-c1cc(N2CCOCC2)ncn1` [BAY85-3934, reference compound], the “EPO OD value” is recorded as “B (B represents 1.5<EPO OD value<2)” in the data set on erythropoietin (10 mg/kg) and “D (D represents EPO OD value>3)” in the data set on erythropoietin (50 mg/kg).
On the same counts, the results for `O=C(O)CNC(=O)c1nc(Cl)c2nc(Cl)ccc2c1O` [Link-122, 2-(2,8-dichloro-5-hydroxy-1,7-naphthyridine-6-formamido) acetic acid] are “A (A represents 1.0<EPO OD value<1.5)” and “B (B represents 1.5<EPO OD value<2)”.
As to `CCOc1ccc2c(O)c(C(=O)NCC(=O)O)nc(Cl)c2n1` [Link-134, 2-(2-ethoxy-5-hydroxy-8-chloro-1,7-naphthyridine-6-formamido) Acetic Acid], in the data set on HIF-1α, the “HIF-1α protein expression compared with blank control” value was “higher than that of the blank control” and the fold induction at 30 µM was in the range of 1 to 4.5. In the data set on HIF-2α, the “HIF-2α protein expression compared with blank control” value is “higher than that of the blank control” and the fold induction at 30 µM was in the range of 1 to 4.5. The “EPO OD value” with erythropoietin (10 mg/kg) was “A (A represents 1.0<EPO OD value<1.5)”. In the data set with erythropoietin (50 mg/kg), the “EPO OD value” is reported as “A (A represents 1.0<EPO OD value<1.5)”.
For the compound `O=C(O)CNC(=O)c1nc(Cl)c2nc(Oc3ccc(Cl)cc3)ccc2c1O` [Link-128, 2-(2-(4-chlorophenoxy)-5-hydroxy-8-chloro-1,7-naphthyridine-6-formamido) Acetic Acid], the “Reticulocytes (RETIC), average” value in the data set on reticulocytes (setting [2]) is reported as 6.15. Moreover, the half-maximal inhibitory concentration (IC50) against CYP1A2 is over 50 µM; on CYP2C19, over 50 µM; on CYP2C9, over 50 µM; on CYP2D6, over 50 µM; against CYP3A4-M it was over 50 µM; against hERG channels it was over 30 µM. Moreover, the “Inhibitory effect on hERG current at the highest test concentration” value (shortened to “Inhibitory effect on hERG current”) on hERG channels was “far from the IC50 value”. Further, the “EPO OD value” is “A (A represents 1.0<EPO OD value<1.5)” with erythropoietin (10 mg/kg) and “D (D represents EPO OD value>3)” in the data set on erythropoietin (50 mg/kg).
Take `O=C(O)CNC(=O)c1nc(Cl)c2nc(Oc3cccnc3)ccc2c1O` [Link-120, 2-(2-(pyrid-3-yloxy)-5-hydroxy-8-chloro-1,7-naphthyridine-6-formamido) Acetic Acid]: the “EPO OD value” with erythropoietin (10 mg/kg) and in the data set on erythropoietin (50 mg/kg) was “A (A represents 1.0<EPO OD value<1.5)” throughout.
Take `O=C(O)CNC(=O)c1nc(Br)c2nc(Oc3cccc(Cl)c3)ccc2c1O` [Link-127, 2-(2-(3-chlorophenoxy)-5-hydroxy-8-bromo-1,7-naphthyridine-6-formamido) Acetic Acid]: the “Reticulocytes (RETIC), average” value with reticulocytes (setting [2]) is recorded as 5.63. The IC50 against CYP1A2 was 37.9 µM; against CYP2C19, over 50 µM; against CYP2C9 it was over 50 µM; on CYP2D6, over 50 µM; on CYP3A4-M it was over 50 µM; against hERG channels it was over 30 µM. Further, at hERG channels, the “Inhibitory effect on hERG current” value was “far from the IC50 value”. The “EPO OD value” in the data set on erythropoietin (10 mg/kg) is “A (A represents 1.0<EPO OD value<1.5)”; in the data set with erythropoietin (50 mg/kg), “D (D represents EPO OD value>3)”.
Regarding `O=C(O)CNC(=O)c1nc(Cl)c2nc(Oc3cccc(Cl)c3)ccc2c1O` [Link-126, 2-(2-(3-chlorophenoxy)-5-hydroxy-8-chloro-1,7-naphthyridine-6-formamido) Acetic Acid], the “Reticulocytes (RETIC), average” value with reticulocytes (setting [2]) was 5.87. The IC50 was over 50 µM against CYP1A2; over 50 µM on CYP2C19; over 50 µM against CYP2C9; over 50 µM against CYP2D6; over 50 µM against CYP3A4-M; over 30 µM against hERG channels. Moreover, on hERG channels, the “Inhibitory effect on hERG current” value is listed as “far from the IC50 value”. Besides, the “EPO OD value” in the data set with erythropoietin (10 mg/kg) is recorded as “A (A represents 1.0<EPO OD value<1.5)”; in the data set on erythropoietin (50 mg/kg), “D (D represents EPO OD value>3)”.
